Results on eleven molecules are retold here after PubChem BioAssay AID1360 (Sanford-Burnham Center for Chemical Genomics, 2008).

Calls of active or inactive are those of the source.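 The calls were made as follows: active = no phosphorylated c-Jun band on immunoblot of thapsigargin-stressed cells, like the unstressed control; inactive = a phosphorylated c-Jun band visible, like the stressed control.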

For the test, the system named is CSM14.1 cells, phospho-c-Jun Western blot, thapsigargin. The experiment in a line: phospho-c-Jun suppression under ER stress – CSM14.1 cells, Western blot, mechanism study for ER stress cell death inhibitors (AID 1360). Background: In western blotting, separated proteins are transferred to a membrane and probed.
For `CCOc1cccc(C2Nc3ccccc3NC3=C2C(=O)CC(c2ccc(OC)cc2)C3)c1` (stereo unspecified), the result was active.

As to `CC1(C)CC(=O)C2=C(C1)Nc1ccccc1NC2c1ccc(-c2ccccc2)cc1` (stereo unspecified), the result was active.

For the molecule `COc1ccc(C2CC(=O)C3=C(C2)Nc2ccccc2NC3c2cccc(Oc3ccccc3)c2)cc1OC` (stereo unspecified), the result was active.

For the molecule `COc1ccc(C2CC(=O)C3=C(C2)Nc2ccccc2NC3c2cc(C)ccc2C)cc1` (stereo unspecified), the result was active.

With `CSc1ccc(C2Nc3ccccc3NC3=C2C(=O)CC(c2ccccc2)C3)cc1` (stereo unspecified), the outcome was active.

As to `COc1ccc(C2CC(=O)C3=C(C2)Nc2ccccc2NC3c2cccc(C(F)(F)F)c2)cc1OC` (stereo unspecified), the outcome was active.

On to `COc1ccc(C2CC(=O)C3=C(C2)Nc2ccccc2NC3c2cccc(Br)c2)cc1OC` (stereo unspecified), for which the result was active.

As to `O=C1CC(c2ccccc2)CC2=C1C(c1c(F)cccc1Cl)Nc1ccccc1N2` (stereo unspecified), the result was active.

As for `CCOc1cc(C2Nc3ccccc3NC3=C2C(=O)CC(c2ccc(OC)cc2)C3)cc(Cl)c1O` (stereo unspecified), the outcome was active.

In the case of `CCCOc1ccc(C2Nc3ccccc3NC3=C2C(=O)CC(c2ccc(OC)c(OC)c2)C3)cc1` (stereo unspecified), the outcome was active.

For the molecule `COc1ccc(C2CC(=O)C3=C(C2)Nc2ccccc2NC3c2ccccc2C(F)(F)F)cc1OC` (stereo unspecified), the result was active.
